Measured values from patent publication US20250241895A1 (GH RESEARCH IRELAND LIMITED, priority 2022, published 2025).

Assay: Pharmacokinetics of 5-MeO-DMT and bufotenine after inhalation
Type: in vivo, human
Details: LLOQ 25 pg/ml
Protocol: Blood samples were obtained at 1; 2; 4; 7; 10; 15; 20; 30; 45 min and 1; 1.5; 2; 3; 4 hours after administration.
PK parameters were generated by algebraic analysis of the concentration versus time plots for each individual. The analysis was carried out using the software Phoenix WinNonlin 6.3.

In the case of `CN(C)CCc1c[nH]c2ccc(O)cc12` [bufotenine], the “samples with bufotenine concentration above LLOQ” value is reported as “Only in few samples” and the bufotenine blood concentration (from 15 min onwards after 5-MeO-DMT inhalation) is reported as < 25 pg/mL.
